Experiments:
[1] = test system: Mmp9; assay: MMP9 activity by gelatin zymography in conditioned media of mouse peritoneal macrophages cultured on fibronectin; format: cell-based; conditions: for maximal inhibition of fibronectin-induced MMP9 production/activity: both wild type and Arhgef1-deficient macrophages, aspirin up to 20 mM, L-161,982, PTA2 1.56 or 6.25 μM, L-655,240 28 μM
Method: (§1) FIG. 5. TP-induced MMP9 production is only partially dependent on COX activity. A) PEMs were cultured on fibronectin for 24 hours with 5% FCS, washed then treated with different concentration of aspirin or 1.6 μM PTXA2 at for an additional 24 hours without FCS. MMP9 activity was determined by zymography from supernatants of wild type (open) or Arhgef1−/− (filled) macrophages. Activity was normalized to activity generated from cells cultured on fibronectin without treatment. B) MMP9 activity in conditioned media from peripheral blood monocytes cultured as described in panel A. Data represents mean±SE (n=3 independent donors).
FIG. 6. The antioxidant mimetic MnTE-2PyP reduces MMP9 activity in macrophages. PEMs were cultured on fibronectin for 24 hours with 5% FCS, washed then treated with MnTE-2PyP at the indicated concentrations for an additional 24 hours without FCS. MMP9 activity was determined by zymography from supernatants of wild type (open) or Arhgef1−/− (filled) macrophages. Activity was normalized to activity generated from cells cultured on fibronectin without treatment.
FIG. 11. Cyclooxygenase activity but not EP4 receptor signaling is required for MMP9 production by murine macrophages cultured on fibronectin. A, representative MMP9 gelatin zymograms of conditioned media from peritoneal macrophages cultured on either plastic (ctl) or FN and treated with increasing concentrations of aspirin (1.25, 5.0, and 20 mM, respectively). Wild type (+/+) and Arhgef1^−/− (−/−) samples from separate zymograms are shown. Molecular weight standards and respective enzymatic activities of MMP9 and MMP2 are shown. B, quantitation of MMP9 activity as determined by densitometric analysis of zymograms in A. MMP 9 activity is shown in arbitrary units and represents n=6 for both wild type (open bars) and Arhgef1^−/− (black bars) samples. The results are compiled from two independent experiments. The data represent the means±S.E. *, p<0.05 Student's two-tailed t test compared with conditioned media from cells cultured on plastic. #, p<0.05 Student's two-tailed test comparing conditioned media from wild type cells to Arhgef1^−/− cells cultured under identical conditions. $, p<0.05 Student's two-tailed t test compared with conditioned media from cells cultured on fibronectin. C, quantitation of MMP9 activity in conditioned media from macrophages cultured on fibronectin in the presence of the EP4 antagonist L161,982 (10 μM). MMP9 activity was normalized to fibronectin response for each genotype. The results are compiled from two independent experiments with wild type (open bars, n=5) and Arhgef1^−/− (black bars, n=5) samples. The data represent the means±S.E. *, p<0.05 Student's two-tailed t test compared with conditioned media from cells cultured on plastic. #, p<0.05 Student's two-tailed t test compared with conditioned media from cells cultured on fibronectin.
FIG. 12. Thromboxane receptor signaling is necessary for fibronectin-induced MMP9 production by macrophages and is attenuated by Arhgef1. A, representative gelatin zymograms of conditioned media from macrophages cultured on plastic (ctl) or FN and treated with 1.56 or 6.25 μM of the thromboxane receptor antagonist PTA2. Wild type (+/+) and Arhgef1^−/− (−/−) samples from separate zymograms are shown. B, quantitation of MMP9 activity as determined by densitometric analysis of zymograms in A. The results are representative of two independent experiments. C, representative zymograms from conditioned media from macrophages cultured on plastic or fibronectin and treated with 28 μM of the thromboxane receptor antagonist L-655,240. D, quantitation of MMP9 activity as determined by densitometric analysis of zymograms in C. The results are compiled from two independent experiments with n=4 for both wild type (open bars) and Arhgef1^−/− (black bars) samples. […]

[2] = test system: MMP9; assay: MMP9 activity by zymography in conditioned media of human peripheral blood monocytes cultured on fibronectin; format: cell-based
Method: as §1
Tissue-culture 96-well plates (Costar high binding catalogue number 3590) were coated with 10 μg/ml of murine fibronectin (Molecular Innovations, Nori, Minn.; catalogue number MFBN) or human fibronectin (Molecular Innovations; catalogue number HFBN) in DPBS without Ca^2+ or Mg^2+ (Mediatech, Inc., Manassas, Va.) for 2 h at room temperature. […] PGE2 and TXB2 were measured in conditioned medium by ELISA according to the manufacturer's instructions (ElisaTech, Aurora, Colo.). […]
Peripheral blood monocytes were isolated from whole blood of healthy volunteers using protocols approved by the National Jewish Health Human Subjects Institutional Review Board. […] This procedure consistently yields monocyte purities of >80% as assessed by flow cytometry. […]

SMILES	maximal inhibition of fibronectin-induced MMP9 production/activity [1]	fibronectin-mediated MMP9 activity (effect in words) ([1]; mouse macrophages, wild type and Arhgef1−/−, 1.6 μM PTXA2, 28 μM L-655,240)	fibronectin-mediated MMP9 activity (effect in words) ([2]; human peripheral blood monocytes, 1.6 μM PTXA2)	reduction of MMP9 activity ([1]; mouse peritoneal macrophages on fibronectin, highest aspirin concentration 5 mM, 24 h)	reduction of MMP9 activity ([2]; human monocytes on fibronectin, highest aspirin concentration 5 mM, 24 h)
CCCCC[C@@H](O)/C=C/[C@H]1C[C@H]2C[C@@H]([C@@H]1C/C=C\CCCC(=O)O)C2(C)C (relative stereo) [PTXA2, (18-(1alpha,2beta(Z),3alpha(1E,3S*),5alpha))-7-(3-(3-Hydroxy-1-octenyl)-6,6-dimethylbicyclo(3.1.1)hept-2-yl)-5-heptenoic acid]	80-85%	virtually ablated fibronectin-mediated MMP9 activity	virtually ablated fibronectin-mediated MMP9 activity		
CC(=O)Oc1ccccc1C(=O)O [aspirin]	70-75%			40-50%	40-50%

— US9820951B2, “Pulmonary disease treatment and diagnosis based on Arhgef1” (NATIONAL JEWISH HEALTH, A NON-PROFIT ORGANIZATION, priority 2011, dated 2017)
